# Values quoted from earlier work as cited in patent US20140283166A1, “CREATION AND TRANSMISSION OF MEGALOCI” (Monsanto Technology, LLC, priority 2013, published 2014).
# Where two headings read alike, the source gives them in different places.
# System: Arabidopsis
smiles,measurement,setting,value
COc1cccc(C(N)=O)c1 [3-methoxybenzamide],effect on genetic distance around centromeres,2 mM,increase the genetic distance around centromeres
Nc1ncn([C@H]2C[C@H](O)[C@@H](CO)O2)c(=O)n1 [5-aza-2′-deoxycytidine],effect on genetic distance around centromeres,25 or 100 mg/L,increase the genetic distance around centromeres
CCN(N=O)C(N)=O [N-nitroso-N-ethylurea],effect on genetic distance around centromeres,100 μM,increase the genetic distance around centromeres
Cc1c(N)nc([C@H](CC(N)=O)NC[C@H](N)C(N)=O)nc1C(=O)N[C@H](C(=O)N[C@H](C)[C@@H](O)[C@H](C)C(=O)N[C@H](C(=O)NCCC1=N[C@@H](c2nc(C(=O)NCCCCN=C(N)N)cs2)CS1)[C@@H](C)O)[C@@H](O[C@@H]1O[C@@H](CO)[C@@H](O)[C@H](O)[C@@H]1O[C@H]1O[C@H](CO)[C@@H](O)[C@H](OC(N)=O)[C@@H]1O)c1cnc[nH]1 [Zeocin],effect on genetic distance around centromeres,1 μg/ml,increase the genetic distance around centromeres
N.N.[Cl][Pt][Cl] [cis-diamminedichloroplatinum],effect on genetic distance around centromeres,20 μg/ml,increase the genetic distance around centromeres
CCOS(C)(=O)=O [methanesulfonic acid ethyl ester],effect on genetic distance around centromeres,0.05%,increase the genetic distance around centromeres
COS(C)(=O)=O [methanesulfonic acid methyl ester],effect on genetic distance around centromeres,75 parts per million,increase the genetic distance around centromeres
CO[C@@]12[C@H](COC(N)=O)C3=C(C(=O)C(C)=C(N)C3=O)N1C[C@@H]1N[C@@H]12 [mitomycin C],effect on genetic distance around centromeres,10 mg/L,increase the genetic distance around centromeres
CCCC(=O)O [n-butyric acid],effect on genetic distance around centromeres,20 μM,increase the genetic distance around centromeres
CC(/C=C/C(=O)NO)=C\[C@@H](C)C(=O)c1ccc(N(C)C)cc1 [trichostatin A],effect on genetic distance around centromeres,10 μM,increase the genetic distance around centromeres
